Results reported in US12649750B2, “Macrocyclic compounds, compositions, and methods of using thereof” (Sionna Therapeutics Inc., priority 2022, dated 2026).

target: T1, NBD1 (Homo sapiens, UniProt P13569); experiment: Aggregation analysis using differential static light scattering (DSLS), thermal stability of NBD1 (ΔTagg); assay type: binding; settings: ΔTagg versus DMSO control, NBD1 0.2 mg/ml
T1 construct: Purified recombinant NBD1 was produced using previously described methods; made in house
T1 sequence (P13569 423-646 limits assumed): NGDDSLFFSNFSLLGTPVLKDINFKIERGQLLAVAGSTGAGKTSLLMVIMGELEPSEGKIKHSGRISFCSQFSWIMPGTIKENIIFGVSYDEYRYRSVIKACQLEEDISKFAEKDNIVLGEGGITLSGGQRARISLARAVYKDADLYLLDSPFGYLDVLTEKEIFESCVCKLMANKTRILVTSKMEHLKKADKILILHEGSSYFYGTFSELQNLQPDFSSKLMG
Method in brief: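 Thermal aggregation of purified NBD1 was followed by static light scattering during a 1° C./min ramp to 70° C. Protein was at 0.2 mg/ml with 2 mM ATP at pH7.6. Each compound's Tagg was referenced to DMSO controls.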

| Compound | DSLS 3D (100 μM ΔT) |
| --- | --- |
| Cn1nc2nc1-c1cc(ccn1)S(=O)(=O)c1c(F)cc3[nH]ccc3c1CCS(=O)(=O)CC(C)(C)CCC[C@]2(C)c1cccc(C[C@H](O)CO)c1 [Compound 335, (2S)-3-[3-[(6R)-22-Fluoro-3,6,10,10-tetramethyl-12,12,24,24-tetraoxo-12λ6,24λ6-dithia-3,4,19,28,30-pentazapentacyclo[23.3.1.12,5.015,23.016,20]triaconta-1(29),2(30),4,15,17,20,22,25,27-nonaen-6-yl]phenyl]propane-1,2-diol] | A (an ΔTagg value less than or equal to 5 °C is marked “A”) |
| CC(=O)OC[C@@H](Cc1cccc([C@@]2(C)CCCC(C)(C)CS(=O)(=O)CCc3c(c(F)cc4[nH]ccc34)Sc3ccnc(c3)-c3nc2nn3C)c1)OC(C)=O [Compound 336A, [(2R)-2-Acetoxy-3-[3-[(6R)-22-fluoro-3,6,10,10-tetramethyl-12,12-dioxo-12λ6,24-dithia-3,4,19,28,30-pentazapentacyclo[23.3.1.12,5.015,23.016,20]triaconta-1(29),2(30),4,15,17,20,22,25,27-nonaen-6-yl]phenyl]propyl]Acetate] | A (an ΔTagg value less than or equal to 5 °C is marked “A”) |
| Cn1nc2nc1-c1cc(ccn1)Sc1c(F)cc3[nH]ccc3c1CCS(=O)(=O)CC(C)(C)CCC[C@]2(C)c1cccc(C[C@@H](O)CO)c1 [Compound 336B, (2R)-3-[3-[(6R)-22-Fluoro-3,6,10,10-tetramethyl-12,12-dioxo-12λ6,24-dithia-3,4,19,28,30-pentazapentacyclo[23.3.1.12,5.015,23.016,20]triaconta-1(29),2(30),4,15,17,20,22,25,27-nonaen-6-yl]phenyl]propane-1,2-diol] | A (an ΔTagg value less than or equal to 5 °C is marked “A”) |
| Cn1nc2nc1-c1cc(ccn1)S(=O)(=O)c1c(F)cc3[nH]ccc3c1CCS(=O)(=O)CC(C)(C)CCC[C@]2(C)c1cccc(C[C@@H](O)CO)c1 [Compound 338, (2R)-3-[3-[(6R)-22-Fluoro-3,6,10,10-tetramethyl-12,12,24,24-tetraoxo-12λ6,24λ6-dithia-3,4,19,28,30-pentazapentacyclo[23.3.1.12,5.015,23.016,20]triaconta-1(29),2(30),4,15,17,20,22,25,27-nonaen-6-yl]phenyl]propane-1,2-diol] | A (an ΔTagg value less than or equal to 5 °C is marked “A”) |
| CC(=O)OC[C@H](Cc1cccc([C@@]2(C)CCCC(C)(C)CS(=O)(=O)CCc3c(c(F)c(F)c4[nH]ccc34)Sc3ccnc(c3)-c3nc2nn3C)c1)OC(C)=O [Compound 339, [(2S)-2-acetoxy-3-[3-[(6R)-21,22-difluoro-3,6,10,10-tetramethyl-12,12-dioxo-12λ6,24-dithia-3,4,19,28,30-pentazapentacyclo[23.3.1.12,5.015,23.016,20]triaconta-1(29),2(30),4,15,17,20,22,25,27-nonaen-6-yl]phenyl]propyl]Acetate] | A (an ΔTagg value less than or equal to 5 °C is marked “A”) |
| Cn1nc2nc1-c1cc(ccn1)Sc1c(F)c(F)c3[nH]ccc3c1CCS(=O)(=O)CC(C)(C)CCC[C@]2(C)c1cccc(C[C@H](O)CO)c1 [Compound 340, (2S)-3-[3-[(6R)-21,22-Difluoro-3,6,10,10-tetramethyl-12,12-dioxo-12λ6,24-dithia-3,4,19,28,30-pentazapentacyclo[23.3.1.12,5.015,23.016,20]triaconta-1(29),2(30),4,15,17,20,22,25,27-nonaen-6-yl]phenyl]propane-1,2-diol] | B (a value above 5 °C and less than or equal to 10 °C is marked “B”) |
| Cn1nc2nc1-c1cc(ccn1)S(=O)(=O)c1c(F)c(F)c3[nH]ccc3c1CCS(=O)(=O)CC(C)(C)CCC[C@]2(C)c1cccc(C[C@H](O)CO)c1 [Compound 342] | A (an ΔTagg value less than or equal to 5 °C is marked “A”) |
| C[C@H](Cc1cccc([C@@]2(C)CCCC(C)(C)CS(=O)(=O)CCc3c(c(F)c(F)c4[nH]cc(F)c34)Oc3ccc(F)c(c3)-c3nc2nn3C)c1)C(=O)O [Compound 345, (2R)-2-Methyl-3-[3-[(6R)-17,21,22,28-tetrafluoro-3,6,10,10-tetramethyl-12,12-dioxo-24-oxa-12λ6-thia-3,4,19,30-tetrazapentacyclo[23.3.1.12,5.015,23.016,20]triaconta-1(29),2(30),4,15,17,20,22,25,27-nonaen-6-yl]phenyl]propanoic Acid] | B (a value above 5 °C and less than or equal to 10 °C is marked “B”) |
| C[C@@H](Cc1cccc([C@@]2(C)CCCC(C)(C)CS(=O)(=O)CCc3c(c(F)c(F)c4[nH]ccc34)S(=O)(=O)c3ccnc(c3)-c3nc2nn3C)c1)C(=O)O [Compound 346, (2S)-3-[3-[(6R)-21,22-Difluoro-3,6,10,10-tetramethyl-12,12,24,24-tetraoxo-12λ6,24λ6-dithia-3,4,19,28,30-pentazapentacyclo[23.3.1.12,5.015,23.016,20]triaconta-1(29),2(30),4,15,17,20,22,25,27-nonaen-6-yl]phenyl]-2-methyl-propanoic Acid] | B (a value above 5 °C and less than or equal to 10 °C is marked “B”) |
| C[C@@H](Cc1cccc([C@@]2(C)CCCC(C)(C)CS(=O)(=O)CCc3c(c(F)cc4[nH]ccc34)S(=O)(=O)c3ccnc(c3)-c3nc2nn3C)c1)C(=O)O [Compound 347, (2S)-3-[3-[(6R)-22-Fluoro-3,6,10,10-tetramethyl-12,12,24,24-tetraoxo-12λ6,24λ6-dithia-3,4,19,28,30-pentazapentacyclo[23.3.1.12,5.015,23.016,20]triaconta-1(29),2(30),4,15,17,20,22,25,27-nonaen-6-yl]phenyl]-2-methyl-propanoic Acid] | B (a value above 5 °C and less than or equal to 10 °C is marked “B”) |
| Cn1nc2nc1-c1cc(ccc1F)S(=O)(=O)c1c(F)cc3[nH]ccc3c1CCS(=O)(=O)CC(C)(C)CCC[C@]2(C)c1cccc(CC(C)(C)C(=O)O)c1 [Compound 348A, 3-[3-[(6R)-22,28-Difluoro-3,6,10,10-tetramethyl-12,12,24,24-tetraoxo-12λ6,24λ6-dithia-3,4,19,30-tetrazapentacyclo[23.3.1.12,5.015,23.016,20]triaconta-1(29),2(30),4,15,17,20,22,25,27-nonaen-6-yl]phenyl]-2,2-dimethyl-propanoic Acid] | A (an ΔTagg value less than or equal to 5 °C is marked “A”) |
| Cn1nc2nc1-c1cc(ccc1F)S(=O)(=O)c1c(F)cc3[nH]cc(Cl)c3c1CCS(=O)(=O)CC(C)(C)CCC[C@]2(C)c1cccc(CC(C)(C)C(=O)O)c1 [Compound 348B, 3-[3-[(6R)-17-Chloro-22,28-difluoro-3,6,10,10-tetramethyl-12,12,24,24-tetraoxo-12λ6,24λ6-dithia-3,4,19,30-tetrazapentacyclo[23.3.1.12,5.015,23.016,20]triaconta-1(29),2(30),4,15,17,20,22,25,27-nonaen-6-yl]phenyl]-2,2-dimethyl-propanoic Acid] | A (an ΔTagg value less than or equal to 5 °C is marked “A”) |
| C[C@H](Cc1cccc([C@@]2(C)CCCC(C)(C)CS(=O)(=O)CCc3c(c(F)cc4[nH]ccc34)S(=O)(=O)c3ccnc(c3)-c3nc2nn3C)c1)C(=O)O [Compound 349, (2R)-3-[3-[(6R)-22-Fluoro-3,6,10,10-tetramethyl-12,12,24,24-tetraoxo-12λ6,24λ6-dithia-3,4,19,28,30-pentazapentacyclo[23.3.1.12,5.015,23.016,20]triaconta-1(29),2(30),4,15,17,20,22,25,27-nonaen-6-yl]phenyl]-2-methyl-propanoic Acid] | B (a value above 5 °C and less than or equal to 10 °C is marked “B”) |
| Cn1nc2nc1-c1cc(ccn1)S(=O)(=O)c1c(F)cc3[nH]ccc3c1CCS(=O)(=O)CC(C)(C)CCC[C@]2(C)c1cccc(CC(C)(C)C(=O)O)c1 [Compound 350, 3-[3-[(6R)-22-Fluoro-3,6,10,10-tetramethyl-12,12,24,24-tetraoxo-12λ6,24λ6-dithia-3,4,19,28,30-pentazapentacyclo[23.3.1.12,5.015,23.016,20]triaconta-1(29),2(30),4,15,17,20,22,25,27-nonaen-6-yl]phenyl]-2,2-dimethyl-propanoic Acid] | A (an ΔTagg value less than or equal to 5 °C is marked “A”) |
| C[C@@H](Cc1cccc([C@@]2(C)CCCC(C)(C)CS(=O)(=O)CCc3c(c(F)c(F)c4[nH]ccc34)S(=O)(=O)c3ccc(F)c(c3)-c3nc2nn3C)c1)C(=O)O [Compound 351, (2S)-2-Methyl-3-[3-[(6R)-21,22,28-trifluoro-3,6,10,10-tetramethyl-12,12,24,24-tetraoxo-12λ6,24λ6-dithia-3,4,19,30-tetrazapentacyclo[23.3.1.12,5.015,23.016,20]triaconta-1(29),2(30),4,15,17,20,22,25,27-nonaen-6-yl]phenyl]propanoic Acid] | B (a value above 5 °C and less than or equal to 10 °C is marked “B”) |
| Cn1nc2nc1-c1cc(ccn1)S(=O)(=O)c1c(F)c(F)c3[nH]ccc3c1CCS(=O)(=O)CC(C)(C)CCC[C@]2(C)c1cccc(CC(C)(C)C(=O)O)c1 [Compound 352, 3-[3-[(6R)-21,22-Difluoro-3,6,10,10-tetramethyl-12,12,24,24-tetraoxo-12λ6,24λ6-dithia-3,4,19,28,30-pentazapentacyclo[23.3.1.12,5.015,23.016,20]triaconta-1(29),2(30),4,15,17,20,22,25,27-nonaen-6-yl]phenyl]-2,2-dimethyl-propanoic Acid] | A (an ΔTagg value less than or equal to 5 °C is marked “A”) |
